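Test compounds were applied to cells in 96-well plates for 48 hours at 5 doses. GI50: concentration for 50% inhibition of growth.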 The source made the active and inactive calls. Cut-off read from the data, not from the text of the source: active = GI50 up to about 1.1 µM and inactive = higher.
What was measured:
Assay in all cases: inhibition of tumour cell growth, NCI panel, 48 h
786-0 = test system: 786-0
A498 = test system: A498
A549 = test system: A549
ACHN = test system: ACHN
BT-549 = test system: BT-549
CAKI-1 = test system: CAKI-1
CCRF-CEM = test system: CCRF-CEM
COLO 205 = test system: COLO 205
DU-145 = test system: DU-145
EKVX = test system: EKVX
HCT-116 = test system: HCT-116
HCT-15 = test system: HCT-15
HL-60 = test system: HL-60
HOP-62 = test system: HOP-62
HOP-92 = test system: HOP-92
HT-29 = test system: HT-29
Hs-578T = test system: Hs-578T
IGROV-1 = test system: IGROV-1
K562 = test system: K562
KM12 = test system: KM12
LOX IMVI = test system: LOX IMVI
M14 = test system: M14
MCF7 = test system: MCF7
MDA-MB-231 = test system: MDA-MB-231
MDA-MB-435 = test system: MDA-MB-435
MDA-N = test system: MDA-N
MOLT-4 = test system: MOLT-4
Malme-3M = test system: Malme-3M
NCI-H226 = test system: NCI-H226
NCI-H23 = test system: NCI-H23
NCI-H460 = test system: NCI-H460
NCI-H522 = test system: NCI-H522
NCI/ADR-RES = test system: NCI/ADR-RES
OVCAR-3 = test system: OVCAR-3
OVCAR-4 = test system: OVCAR-4
OVCAR-5 = test system: OVCAR-5
OVCAR-8 = test system: OVCAR-8
PC-3 = test system: PC-3
RPMI-8226 = test system: RPMI-8226
RXF 393 = test system: RXF 393
SF-268 = test system: SF-268
SF-295 = test system: SF-295
SF-539 = test system: SF-539
SK-MEL-28 = test system: SK-MEL-28
SK-MEL-2 = test system: SK-MEL-2
SK-MEL-5 = test system: SK-MEL-5
SK-OV-3 = test system: SK-OV-3
SN12C = test system: SN12C
SNB-19 = test system: SNB-19
SNB-75 = test system: SNB-75
SR = test system: SR
SW-620 = test system: SW-620
T47D = test system: T47D
TK-10 = test system: TK-10
U-251 = test system: U-251
UACC-257 = test system: UACC-257
UACC-62 = test system: UACC-62
UO-31 = test system: UO-31
HCC 2998 = test system: HCC 2998

Structure (SMILES): O=[N+]([O-])c1cc(Cl)cc2c1nc(NCCO)c1ccccc12
- GI50 (786-0): 6.81 µM (inactive)
- GI50 (A498): 10.3 µM (inactive)
- GI50 (A549): 2.95 µM (inactive)
- GI50 (ACHN): 6.43 µM (inactive)
- GI50 (BT-549): 15.4 µM (inactive)
- GI50 (CAKI-1): 16.5 µM (inactive)
- GI50 (CCRF-CEM): 16.7 µM (inactive)
- GI50 (COLO 205): 0.0435 µM (active)
- GI50 (DU-145): 1.69 µM (inactive)
- GI50 (EKVX): 6.21 µM (inactive)
- GI50 (HCT-116): 4.78 µM (inactive)
- GI50 (HCT-15): 4.36 µM
- GI50 (HL-60): 3.5 µM (inactive)
- GI50 (HOP-62): 7.24 µM (inactive)
- GI50 (HOP-92): 15.6 µM (inactive)
- GI50 (HT-29): 0.063 µM (active)
- GI50 (Hs-578T): 28.9 µM (inactive)
- GI50 (IGROV-1): 15.2 µM (inactive)
- GI50 (K562): 4.39 µM (inactive)
- GI50 (KM12): 9.53 µM (inactive)
- GI50 (LOX IMVI): 17.2 µM (inactive)
- GI50 (M14): 8.45 µM (inactive)
- GI50 (MCF7): 2.28 µM (inactive)
- GI50 (MDA-MB-231): 21.1 µM (inactive)
- GI50 (MDA-MB-435): 6.17 µM (inactive)
- GI50 (MDA-N): 4.62 µM (inactive)
- GI50 (MOLT-4): 3.78 µM (inactive)
- GI50 (Malme-3M): 12.3 µM (inactive)
- GI50 (NCI-H226): 13.5 µM (inactive)
- GI50 (NCI-H23): 9.75 µM (inactive)
- GI50 (NCI-H460): 2.58 µM (inactive)
- GI50 (NCI-H522): 13.6 µM (inactive)
- GI50 (NCI/ADR-RES): 23.5 µM (inactive)
- GI50 (OVCAR-3): 12.1 µM (inactive)
- GI50 (OVCAR-4): 13.5 µM (inactive)
- GI50 (OVCAR-5): 9.18 µM (inactive)
- GI50 (OVCAR-8): 16.3 µM (inactive)
- GI50 (PC-3): 4.97 µM (inactive)
- GI50 (RPMI-8226): 6.25 µM (inactive)
- GI50 (RXF 393): 6.46 µM (inactive)
- GI50 (SF-268): 23.8 µM (inactive)
- GI50 (SF-295): 13.1 µM (inactive)
- GI50 (SF-539): 20.9 µM (inactive)
- GI50 (SK-MEL-28): 39.5 µM (inactive)
- GI50 (SK-MEL-2): 10.5 µM (inactive)
- GI50 (SK-MEL-5): 1.35 µM (inactive)
- GI50 (SK-OV-3): 29.1 µM (inactive)
- GI50 (SN12C): 6.17 µM (inactive)
- GI50 (SNB-19): 16.1 µM (inactive)
- GI50 (SNB-75): 20.4 µM (inactive)
- GI50 (SR): 0.653 µM (active)
- GI50 (SW-620): 4.5 µM (inactive)
- GI50 (T47D): 20.3 µM (inactive)
- GI50 (TK-10): 10.8 µM (inactive)
- GI50 (U-251): 6.64 µM (inactive)
- GI50 (UACC-257): 13.8 µM (inactive)
- GI50 (UACC-62): 10.3 µM (inactive)
- GI50 (UO-31): 24.1 µM (inactive)

Structure (SMILES): O=c1onc2n1-c1cc(Cl)ccc1C(=S)N1CSCC21 (stereo not drawn)
- GI50 (786-0): > 100 µM (inactive)
- GI50 (A498): > 100 µM (inactive)
- GI50 (A549): > 100 µM (inactive)
- GI50 (ACHN): > 100 µM (inactive)
- GI50 (BT-549): > 100 µM (inactive)
- GI50 (CAKI-1): > 100 µM (inactive)
- GI50 (CCRF-CEM): 55.8 µM (inactive)
- GI50 (COLO 205): > 100 µM (inactive)
- GI50 (DU-145): > 100 µM (inactive)
- GI50 (EKVX): > 100 µM (inactive)
- GI50 (HCC 2998): > 100 µM (inactive)
- GI50 (HCT-116): > 100 µM (inactive)
- GI50 (HCT-15): > 100 µM
- GI50 (HOP-62): > 100 µM (inactive)
- GI50 (HT-29): > 100 µM (inactive)
- GI50 (Hs-578T): > 100 µM (inactive)
- GI50 (IGROV-1): > 100 µM (inactive)
- GI50 (K562): 26.7 µM (inactive)
- GI50 (KM12): 89.7 µM (inactive)
- GI50 (LOX IMVI): > 100 µM (inactive)
- GI50 (M14): > 100 µM (inactive)
- GI50 (MCF7): > 100 µM (inactive)
- GI50 (MDA-MB-231): > 100 µM (inactive)
- GI50 (MDA-MB-435): > 100 µM (inactive)
- GI50 (MDA-N): > 100 µM (inactive)
- GI50 (MOLT-4): > 100 µM (inactive)
- GI50 (Malme-3M): > 100 µM (inactive)
- GI50 (NCI-H226): > 100 µM (inactive)
- GI50 (NCI-H460): > 100 µM (inactive)
- GI50 (NCI-H522): > 100 µM (inactive)
- GI50 (NCI/ADR-RES): > 100 µM (inactive)
- GI50 (OVCAR-3): > 100 µM (inactive)
- GI50 (OVCAR-4): > 100 µM (inactive)
- GI50 (OVCAR-5): > 100 µM (inactive)
- GI50 (OVCAR-8): > 100 µM (inactive)
- GI50 (PC-3): > 100 µM (inactive)
- GI50 (RPMI-8226): > 100 µM (inactive)
- GI50 (RXF 393): > 100 µM (inactive)
- GI50 (SF-268): > 100 µM (inactive)
- GI50 (SF-295): > 100 µM (inactive)
- GI50 (SK-MEL-28): > 100 µM (inactive)
- GI50 (SK-MEL-2): > 100 µM (inactive)
- GI50 (SK-MEL-5): > 100 µM (inactive)
- GI50 (SK-OV-3): > 100 µM (inactive)
- GI50 (SN12C): > 100 µM (inactive)
- GI50 (SNB-19): > 100 µM (inactive)
- GI50 (SNB-75): 31.3 µM (inactive)
- GI50 (SR): 34.6 µM (inactive)
- GI50 (SW-620): > 100 µM (inactive)
- GI50 (T47D): > 100 µM (inactive)
- GI50 (TK-10): > 100 µM (inactive)
- GI50 (U-251): > 100 µM (inactive)
- GI50 (UACC-257): > 100 µM (inactive)
- GI50 (UACC-62): > 100 µM (inactive)
- GI50 (UO-31): > 100 µM (inactive)
